Patent US20230167073A1 (Teijin Pharma Limited, priority 2020, published 2023)

The compounds below were run against T1, Human TRPC6 (Homo sapiens, UniProt Q9Y210) (assay: Evaluation of TRPC6 channel inhibitory activity (1), FLIPR Calcium 5 Assay Kit, OAG stimulation (Compound Nos. 1-1293)). Conditions: not given.
T1 construct: expressed in transfected cells
T1 sequence (Q9Y210 1-931): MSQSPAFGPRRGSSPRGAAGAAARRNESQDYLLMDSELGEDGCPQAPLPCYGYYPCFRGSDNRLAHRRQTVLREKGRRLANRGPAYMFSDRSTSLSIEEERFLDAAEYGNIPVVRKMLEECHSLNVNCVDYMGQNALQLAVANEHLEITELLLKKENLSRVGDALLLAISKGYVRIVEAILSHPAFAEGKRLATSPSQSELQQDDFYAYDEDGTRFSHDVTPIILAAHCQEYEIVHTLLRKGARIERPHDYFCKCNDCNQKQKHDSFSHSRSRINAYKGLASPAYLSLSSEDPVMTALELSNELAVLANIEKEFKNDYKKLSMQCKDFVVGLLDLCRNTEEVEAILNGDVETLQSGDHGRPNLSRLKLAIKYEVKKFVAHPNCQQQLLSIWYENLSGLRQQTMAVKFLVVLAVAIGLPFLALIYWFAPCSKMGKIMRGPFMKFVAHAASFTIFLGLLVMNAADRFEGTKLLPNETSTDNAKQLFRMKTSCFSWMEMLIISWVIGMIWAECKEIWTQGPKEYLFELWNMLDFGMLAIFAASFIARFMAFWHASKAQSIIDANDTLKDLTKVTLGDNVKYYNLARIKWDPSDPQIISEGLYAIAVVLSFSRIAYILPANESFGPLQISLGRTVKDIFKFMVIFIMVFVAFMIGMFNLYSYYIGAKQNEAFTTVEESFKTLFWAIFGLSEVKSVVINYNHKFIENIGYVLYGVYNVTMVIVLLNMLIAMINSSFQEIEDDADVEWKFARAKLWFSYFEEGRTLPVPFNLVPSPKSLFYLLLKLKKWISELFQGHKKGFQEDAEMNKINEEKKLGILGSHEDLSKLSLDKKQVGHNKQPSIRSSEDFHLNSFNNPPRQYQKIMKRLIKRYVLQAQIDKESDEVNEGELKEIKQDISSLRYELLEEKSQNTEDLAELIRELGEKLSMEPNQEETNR
Format: cell-based
Procedure, shortened: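 TRPC6 (human) stable cells, 24 h culture; Ca5 no-wash dye + probenecid 30 min; cpd 20 min; OAG 30 μM final; ΔF (pre-cpd min to post-OAG max); 0%/100% = no cpd / no cpd + no OAG; 4PL → pIC50, binned +/++/+++.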

SMILES	IC50
Cn1nc(N2C3CCC2COC3)cc1Oc1cc(C#N)ccc1-c1ncc(CN)cn1 [compound 944, 4-[5-(aminomethyl)pyrimidin-2-yl]-3-[2-methyl-5-(3-oxa-8-azabicyclo[3.2.1]octan-8-yl)pyrazol-3-yl]oxybenzonitrile]	10 to 1000 nM

Same assay, conditions: Human TRPC6 stably-expressing cells, OAG 30 μM, FLIPR Calcium 5 Assay Kit; read-out: Inhibitory activity (pIC50 class) (converted)

SMILES	IC50
C#CCOc1cc(Oc2cc(C#N)ccc2-c2ncc(CCN)cn2)nc(C)n1 [compound 926, 4-[5-(2-aminoethyl)pyrimidin-2-yl]-3-(2-methyl-6-prop-2-ynoxypyrimidin-4-yl)oxybenzonitrile]	> 1000 nM
N#Cc1ccc(-c2ncc(CCN)cn2)c(Oc2cnn(CC(F)F)c2)c1 [compound 927, 4-[5-(2-aminoethyl)pyrimidin-2-yl]-3-[1-(2,2-difluoroethyl)pyrazol-4-yl]oxybenzonitrile]	10 to 1000 nM
Cn1nc(-c2cncc(F)c2)cc1Oc1cc(C#N)ccc1-c1ncc(CN)cn1 [compound 928, 4-[5-(aminomethyl)pyrimidin-2-yl]-3-[5-(5-fluoropyridin-3-yl)-2-methylpyrazol-3-yl]oxybenzonitrile]	10 to 1000 nM
Cn1nc(Br)cc1Oc1cc(C#N)ccc1-c1ncc(CN)cn1 [compound 929, 4-[5-(aminomethyl)pyrimidin-2-yl]-3-(5-bromo-2-methylpyrazol-3-yl)oxybenzonitrile]	> 1000 nM
Cn1nc(-c2cncnc2)cc1Oc1cc(C#N)ccc1-c1ncc(CN)cn1 [compound 930, 4-[5-(aminomethyl)pyrimidin-2-yl]-3-(2-methyl-5-pyrimidin-5-ylpyrazol-3-yl)oxybenzonitrile]	10 to 1000 nM
Cn1nc(-c2ccncn2)cc1Oc1cc(C#N)ccc1-c1ncc(CN)cn1 [compound 932, 4-[5-(aminomethyl)pyrimidin-2-yl]-3-(2-methyl-5-pyrimidin-4-ylpyrazol-3-yl)oxybenzonitrile]	< 10 nM
Cc1nc(-c2cc(Oc3cc(C#N)ccc3-c3ncc(CN)cn3)n(C)n2)cn1C [compound 933, 4-[5-(aminomethyl)pyrimidin-2-yl]-3-[5-(1,2-dimethylimidazol-4-yl)-2-methylpyrazol-3-yl]oxybenzonitrile]	> 1000 nM
Cn1nc(-c2cccnn2)cc1Oc1cc(C#N)ccc1-c1ncc(CN)cn1 [compound 934, 4-[5-(aminomethyl)pyrimidin-2-yl]-3-(2-methyl-5-pyridazin-3-ylpyrazol-3-yl)oxybenzonitrile]	10 to 1000 nM
Cn1nc(-c2cncs2)cc1Oc1cc(C#N)ccc1-c1ncc(CN)cn1 [compound 935, 4-[5-(aminomethyl)pyrimidin-2-yl]-3-[2-methyl-5-(1,3-thiazol-5-yl)pyrazol-3-yl]oxybenzonitrile]	< 10 nM
Cn1ccnc1-c1cc(Oc2cc(C#N)ccc2-c2ncc(CN)cn2)n(C)n1 [compound 936, 4-[5-(aminomethyl)pyrimidin-2-yl]-3-[2-methyl-5-(1-methylimidazol-2-yl)pyrazol-3-yl]oxybenzonitrile]	10 to 1000 nM
Cc1nn(CC(C)(C)C)cc1Oc1cc(C#N)ccc1-c1ncc(CCN)cn1 [compound 937, 4-[5-(2-aminoethyl)pyrimidin-2-yl]-3-[1-(2,2-dimethylpropyl)-3-methylpyrazol-4-yl]oxybenzonitrile]	< 10 nM
Cc1c(Oc2cc(C#N)ccc2-c2ncc(CCN)cn2)cnn1CC(C)(C)C [compound 938, 4-[5-(2-aminoethyl)pyrimidin-2-yl]-3-[1-(2,2-dimethylpropyl)-5-methylpyrazol-4-yl]oxybenzonitrile]	10 to 1000 nM
Cc1nn(CC(C)C)c(C)c1Oc1cc(C#N)ccc1-c1ncc(CCN)cn1 [compound 939, 4-[5-(2-aminoethyl)pyrimidin-2-yl]-3-[3,5-dimethyl-1-(2-methylpropyl)pyrazol-4-yl]oxybenzonitrile]	10 to 1000 nM
Cc1nn(CC(F)F)c(C)c1Oc1cc(C#N)ccc1-c1ncc(CCN)cn1 [compound 940, 4-[5-(2-aminoethyl)pyrimidin-2-yl]-3-[1-(2,2-difluoroethyl)-3,5-dimethylpyrazol-4-yl]oxybenzonitrile]	> 1000 nM
Cc1nn(-c2ccccn2)c(C)c1Oc1cc(C#N)ccc1-c1ncc(CCN)cn1 [compound 941, 4-[5-(2-aminoethyl)pyrimidin-2-yl]-3-(3,5-dimethyl-1-pyridin-2-ylpyrazol-4-yl)oxybenzonitrile]	> 1000 nM
Cc1nn(C(C)C)c(C)c1Oc1cc(C#N)ccc1-c1ncc(CCN)cn1 [compound 942, 4-[5-(2-aminoethyl)pyrimidin-2-yl]-3-(3,5-dimethyl-1-propan-2-ylpyrazol-4-yl)oxybenzonitrile]	> 1000 nM

SMILES	IC50
Cc1nn(CC(F)(F)F)c(C)c1Oc1cc(C#N)ccc1-c1ncc(CCN)cn1 [compound 943, 4-[5-(2-aminoethyl)pyrimidin-2-yl]-3-[3,5-dimethyl-1-(2,2,2-trifluoroethyl)pyrazol-4-yl]oxybenzonitrile]	> 1000 nM
Cn1nc(-c2ccnn2C)cc1Oc1cc(C#N)ccc1-c1ncc(CN)cn1 [compound 945, 4-[5-(aminomethyl)pyrimidin-2-yl]-3-[2-methyl-5-(2-methylpyrazol-3-yl)pyrazol-3-yl]oxybenzonitrile]	< 10 nM
Cn1ccc(-c2cc(Oc3cc(C#N)ccc3-c3ncc(CN)cn3)n(C)n2)n1 [compound 946, 4-[5-(aminomethyl)pyrimidin-2-yl]-3-[2-methyl-5-(1-methylpyrazol-3-yl)pyrazol-3-yl]oxybenzonitrile]	10 to 1000 nM
Cn1cc(-c2cc(Oc3cc(C#N)ccc3-c3ncc(CN)cn3)n(C)n2)cn1 [compound 947, 4-[5-(aminomethyl)pyrimidin-2-yl]-3-[2-methyl-5-(1-methylpyrazol-4-yl)pyrazol-3-yl]oxybenzonitrile]	> 1000 nM
Cn1nc(-c2ccncn2)cc1Oc1cc(C#N)ccc1-c1ncc(CCN)cn1 [compound 949, 4-[5-(2-aminoethyl)pyrimidin-2-yl]-3-(2-methyl-5-pyrimidin-4-ylpyrazol-3-yl)oxybenzonitrile]	< 10 nM
Cn1nc(-c2cnccn2)cc1Oc1cc(C#N)ccc1-c1ncc(CCN)cn1 [compound 950, 4-[5-(2-aminoethyl)pyrimidin-2-yl]-3-(2-methyl-5-pyrazin-2-ylpyrazol-3-yl)oxybenzonitrile]	< 10 nM
Cn1nc(-c2cncs2)cc1Oc1cc(C#N)ccc1-c1ncc(CCN)cn1 [compound 951, 4-[5-(2-aminoethyl)pyrimidin-2-yl]-3-[2-methyl-5-(1,3-thiazol-5-yl)pyrazol-3-yl]oxybenzonitrile]	< 10 nM
Cn1nc(-c2cscn2)cc1Oc1cc(C#N)ccc1-c1ncc(CCN)cn1 [compound 952, 4-[5-(2-aminoethyl)pyrimidin-2-yl]-3-[2-methyl-5-(1,3-thiazol-4-yl)pyrazol-3-yl]oxybenzonitrile]	< 10 nM
CCc1nn(CC(C)C)cc1Oc1cc(C#N)ccc1-c1ncc(CCN)cn1 [compound 953, 4-[5-(2-aminoethyl)pyrimidin-2-yl]-3-[3-ethyl-1-(2-methylpropyl)pyrazol-4-yl]oxybenzonitrile]	< 10 nM
CCc1c(Oc2cc(C#N)ccc2-c2ncc(CCN)cn2)cnn1CC(C)C [compound 954, 4-[5-(2-aminoethyl)pyrimidin-2-yl]-3-[5-ethyl-1-(2-methylpropyl)pyrazol-4-yl]oxybenzonitrile]	10 to 1000 nM
CC(C)Cn1cc(Oc2cc(C#N)ccc2-c2ncc(CCN)cn2)c(C(F)(F)F)n1 [compound 955, 4-[5-(2-aminoethyl)pyrimidin-2-yl]-3-[1-(2-methylpropyl)-3-(trifluoromethyl)pyrazol-4-yl]oxybenzonitrile]	< 10 nM
CN(C)C(=O)c1cc(Oc2cc(C#N)ccc2-c2ncc(CN)cn2)n(C)n1 [compound 956, 5-[2-[5-(aminomethyl)pyrimidin-2-yl]-5-cyanophenoxy]-N,N,1-trimethylpyrazole-3-carboxamide]	10 to 1000 nM
Cc1nc(-c2cc(Oc3cc(C#N)ccc3-c3ncc(CN)cn3)n(C)n2)cs1 [compound 957, 4-[5-(aminomethyl)pyrimidin-2-yl]-3-[2-methyl-5-(2-methyl-1,3-thiazol-4-yl)pyrazol-3-yl]oxybenzonitrile]	< 10 nM
Cc1ncsc1-c1cc(Oc2cc(C#N)ccc2-c2ncc(CN)cn2)n(C)n1 [compound 958, 4-[5-(aminomethyl)pyrimidin-2-yl]-3-[2-methyl-5-(4-methyl-1,3-thiazol-5-y)pyrazol-3-yl]oxybenzonitrile]	< 10 nM
Cc1csc(-c2cc(Oc3cc(C#N)ccc3-c3ncc(CN)cn3)n(C)n2)n1 [compound 959, 4-[5-(aminomethyl)pyrimidin-2-yl]-3-[2-methyl-5-(4-methyl-1,3-thiazol-2-yl)pyrazol-3-yl]oxybenzonitrile]	10 to 1000 nM
